Reference: patent US9029337B2, “Modulation of factor 7 expression” (Isis Pharmaceuticals, Inc., priority 2007, dated 2015)
Strand notation (5' to 3'): a small letter for the sugar, then the base; units joined by * are phosphorothioate-linked, units joined directly phosphodiester-linked; [ ] holds rarer units or linkages, { } end groups; capitals alone tell only the bases. e = 2'-O-(2-methoxyethyl) (MOE); [5mC] = 5-methylcytosine; d = 2'-deoxy (DNA)

These substances were tested on human Factor 7 mRNA (assay: Antisense inhibition of human Factor 7 mRNA in HepB3 cells, 50 nM antisense oligonucleotide, lipofectin). Conditions: Table 1, 50 nM, lipofectin, approximately 24 hours, relative to untreated control cells.
Assay type: cell-based
Summary of the method: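 Percent inhibition of Factor 7 mRNA, relative to untreated control, comes from real-time RT-PCR with RIBOGREEN normalization, using primer probe set RTS 2927 in some runs. RNA was taken roughly 24 h after lipofectin delivery of 50 nM oligonucleotide into HepB3 cells.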
With “407666 (antisense eT*e[5mC]*e[5mC]*e[5mC]*e[5mC]*dA*dG*dG*dA*d[5mC]*dA*dT*d[5mC]*dT*dG*eG*eA*eA*e[5mC]*eT) [compound 407666]” the “% Inhibition” value was 52%.
For “407600 (antisense eT*eG*eA*eA*eG*d[5mC]*d[5mC]*d[5mC]*dA*dA*dG*d[5mC]*dA*dG*dA*eA*eG*eG*e[5mC]*eA) [compound 407600]”, the “% Inhibition” value was 61%.
For “407896 (antisense e[5mC]*eG*eT*eG*eT*dG*dG*dT*d[5mC]*dA*d[5mC]*dT*dG*d[5mC]*dA*eG*eT*eA*e[5mC]*eT) [compound 407896]”, the “% Inhibition” value was 73%.
With “407660 (antisense eG*e[5mC]*eT*e[5mC]*eT*dG*dA*dA*dG*dT*dA*dG*dA*dT*dG*eA*eT*eG*e[5mC]*e[5mC]) [compound 407660]” the “% Inhibition” value was 16%.
In the case of “407931 (antisense e[5mC]*eT*eT*e[5mC]*eA*dG*dA*dG*dG*dA*d[5mC]*dA*dG*d[5mC]*dA*e[5mC]*eA*e[5mC]*eA*eT) [compound 407931]”, the “% Inhibition” value is reported as 56%.
For “407889 (antisense eT*e[5mC]*e[5mC]*eT*eG*dG*dG*dT*dT*dA*d[5mC]*dG*dA*dA*dG*eA*e[5mC]*eT*eG*e[5mC]) [compound 407889]”, the “% Inhibition” value was 54%.
With “407658 (antisense eG*e[5mC]*eT*eT*eG*d[5mC]*d[5mC]*dG*dG*dA*dG*dT*d[5mC]*dT*dG*eA*eG*eT*eG*eG) [compound 407658]” the “% Inhibition” value was 16%.
For “407667 (antisense eG*eT*eG*eG*e[5mC]*d[5mC]*dA*dT*dG*d[5mC]*d[5mC]*d[5mC]*dT*dG*dG*eG*eT*e[5mC]*eA*eG) [compound 407667]”, the “% Inhibition” value was 71%.
In the case of “407652 (antisense eT*eG*eG*eG*eA*dG*d[5mC]*dT*dA*d[5mC]*dA*dG*d[5mC]*d[5mC]*dT*e[5mC]*eA*eA*eA*e[5mC]) [compound 407652]”, the “% Inhibition” value is reported as 30%.
With “407893 (antisense eT*e[5mC]*eG*eA*eA*dG*dG*d[5mC]*dA*dG*dG*dG*dA*dG*dG*e[5mC]*eA*eG*eA*eA) [compound 407893]” the “% Inhibition” value was 33%.
“407613 (antisense eT*eG*e[5mC]*eT*e[5mC]*dA*d[5mC]*dA*dG*d[5mC]*d[5mC]*dG*d[5mC]*d[5mC]*dG*eT*eT*e[5mC]*eT*e[5mC]) [compound 407613]” was tested, and the “% Inhibition” value was 66%.
For “407629 (antisense eT*e[5mC]*eA*eG*eT*dG*dA*dG*dG*dA*d[5mC]*d[5mC]*dA*d[5mC]*dG*eG*eG*e[5mC]*eT*eG) [compound 407629]”, the “% Inhibition” value was 34%.
For “407645 (antisense eG*eA*eG*eA*eG*d[5mC]*dT*dA*dA*dA*d[5mC]*dA*dA*d[5mC]*d[5mC]*eG*e[5mC]*e[5mC]*eT*eT) [compound 407645]”, the “% Inhibition” value was 65%.
In the case of “407894 (antisense eG*eT*eT*e[5mC]*e[5mC]*dG*dG*d[5mC]*d[5mC]*d[5mC]*dT*d[5mC]*dG*dA*dA*eG*eG*e[5mC]*eA*eG) [compound 407894]”, the “% Inhibition” value is reported as 77%.
In the case of “407944 (antisense e[5mC]*e[5mC]*eA*eG*eT*dG*dG*dG*dT*dG*dG*d[5mC]*dA*dG*dG*e[5mC]*eA*e[5mC]*e[5mC]*eA) [compound 407944]”, the “% Inhibition” value is reported as 59%.
In the case of “407630 (antisense e[5mC]*eA*e[5mC]*eA*eT*dG*dG*dT*d[5mC]*dA*dG*dT*dG*dA*dG*eG*eA*e[5mC]*e[5mC]*eA) [compound 407630]”, the “% Inhibition” value is reported as 29%.
For “407644 (antisense eG*eA*eG*eG*eA*d[5mC]*dA*dG*d[5mC]*dA*d[5mC]*dA*d[5mC]*dA*dT*eG*eG*eA*eG*eT) [compound 407644]”, the “% Inhibition” value was 66%.

Same assay, conditions: Table 6, 50 nM, lipofectin, approximately 24 hours
In the case of “422123 (antisense eG*eA*eG*e[5mC]*eG*d[5mC]*dG*dG*dA*dA*dG*dA*dA*dG*dG*eG*eA*e[5mC]*eG*eG) [compound 422123]”, the “% Inhibition” value is reported as 16%.
“422272 (antisense eA*e[5mC]*dT*dG*dA*dG*d[5mC]*dG*d[5mC]*dG*dG*dA*dA*dG*dA*eA*eG*eG*eG*eA) [compound 422272]” was tested, and the “% Inhibition” value was 12%.
With “422197 (antisense eT*eT*eA*d[5mC]*dT*dG*dA*dG*d[5mC]*dG*d[5mC]*dG*dG*dA*dA*dG*dA*eA*eG*eG) [compound 422197]” the “% Inhibition” value was 26%.
In the case of “422263 (antisense eG*eG*dA*dA*dG*dA*dA*dG*dG*dG*dA*d[5mC]*dG*dG*dA*eA*eG*eG*eT*eG) [compound 422263]”, the “% Inhibition” value is reported as 19%.
For “422129 (antisense eG*eT*eT*eA*e[5mC]*dT*dG*dA*dG*d[5mC]*dG*d[5mC]*dG*dG*dA*eA*eG*eA*eA*eG) [compound 422129]”, the “% Inhibition” value was 45%.

Same assay, conditions: gapmers targeted to nucleobases 4868 to 4899 of SEQ ID NO: 1, Table 8
In the case of “422146 (antisense eA*eG*e[5mC]*e[5mC]*e[5mC]*dG*dA*dG*dT*dT*d[5mC]*dT*dG*d[5mC]*dA*eG*eG*eA*eG*e[5mC]) [compound 422146]”, the “% Inhibition of human Factor 7 mRNA levels” value is reported as 58%.
“422143 (antisense e[5mC]*e[5mC]*eG*eA*eG*dT*dT*d[5mC]*dT*dG*d[5mC]*dA*dG*dG*dA*eG*e[5mC]*eG*eG*e[5mC]) [compound 422143]” was tested, and the “% Inhibition of human Factor 7 mRNA levels” value was 70%.
For “422293 (antisense eA*eG*dT*dT*d[5mC]*dT*dG*d[5mC]*dA*dG*dG*dA*dG*d[5mC]*dG*eG*e[5mC]*e[5mC]*eT*eA) [compound 422293]”, the “% Inhibition of human Factor 7 mRNA levels” value was 69%.

Same assay, conditions: lipofectin, 50 nM antisense oligonucleotide, approximately 24 hours, Factor 7 mRNA by real-time RT-PCR (RTS 2927), relative to untreated control
“416518 (antisense eG*eG*eG*eT*eG*dA*d[5mC]*d[5mC]*dA*d[5mC]*dA*d[5mC]*dA*dT*dT*eT*e[5mC]*e[5mC]*eT*eG) [compound 416518]” was tested, and the “% Inhibition” value was 55%.
For “416461 (antisense eG*eA*eA*eG*e[5mC]*dG*d[5mC]*dA*d[5mC]*dG*dA*dA*dG*dG*d[5mC]*e[5mC]*eA*eG*e[5mC]*eG) [compound 416461]”, the “% Inhibition” value was 43%.
In the case of “416469 (antisense eG*e[5mC]*eA*eG*e[5mC]*d[5mC]*dA*d[5mC]*dT*d[5mC]*dG*dA*dT*dG*dT*eA*e[5mC]*eT*eG*eG) [compound 416469]”, the “% Inhibition” value is reported as 55%.
For “416458 (antisense eG*eG*e[5mC]*eG*eG*dA*dG*d[5mC]*dA*dG*d[5mC]*dG*d[5mC]*dG*dA*eT*eG*eT*e[5mC]*eG) [compound 416458]”, the “% Inhibition” value was 29%.
In the case of “416564 (antisense eG*e[5mC]*e[5mC]*eA*e[5mC]*dT*d[5mC]*dA*d[5mC]*dA*dG*dA*dA*dA*dG*e[5mC]*eT*eG*eG*eA) [compound 416564]”, the “% Inhibition” value is reported as 0%.
“416557 (antisense eT*e[5mC]*e[5mC]*e[5mC]*eA*dG*dG*d[5mC]*dA*dA*dA*dG*d[5mC]*dT*dG*e[5mC]*eT*e[5mC]*eA*eG) [compound 416557]” was tested, and the “% Inhibition” value was 56%.
In the case of “416522 (antisense eG*eG*e[5mC]*eT*eG*dA*dG*dA*dA*dT*dT*dG*d[5mC]*d[5mC]*d[5mC]*eA*eG*eG*eG*e[5mC]) [compound 416522]”, the “% Inhibition” value is reported as 25%.
In the case of “416545 (antisense eA*eG*eA*eA*eA*d[5mC]*dA*dT*d[5mC]*d[5mC]*d[5mC]*dA*dT*dT*dT*eT*e[5mC]*e[5mC]*e[5mC]*eA) [compound 416545]”, the “% Inhibition” value is reported as 8%.
“416497 (antisense e[5mC]*eG*eT*eG*e[5mC]*dA*dG*dG*dT*dG*dT*dT*dA*dA*dG*eG*eT*eG*eT*eG) [compound 416497]” was tested, and the “% Inhibition” value was 0%.
With “416527 (antisense eG*eA*eG*e[5mC]*eT*dT*d[5mC]*d[5mC]*d[5mC]*dA*dA*dG*dT*dT*dG*eG*e[5mC]*eA*eG*eT) [compound 416527]” the “% Inhibition” value was 49%.
In the case of “416495 (antisense eT*e[5mC]*eT*eA*eG*dA*dA*dT*dT*d[5mC]*d[5mC]*dA*dA*dA*d[5mC]*e[5mC]*e[5mC]*e[5mC]*eT*eA) [compound 416495]”, the “% Inhibition” value is reported as 0%.

Same assay, conditions: oligonucleotides targeted to nucleobases 11830 to 11869 of SEQ ID NO: 1 (Table 9)
With “422157 (antisense eT*eG*eG*dT*d[5mC]*dA*dG*dG*dG*d[5mC]*dT*dG*dG*dT*dT*dT*dT*eG*eG*eA) [compound 422157]” the “% Inhibition (human Factor 7 mRNA levels)” value was 49%.
“422103 (antisense eG*e[5mC]*eT*eG*eA*dG*dG*dA*dG*dA*d[5mC]*dA*dA*dT*dG*eG*eT*e[5mC]*eA*eG) [compound 422103]” was tested, and the “% Inhibition (human Factor 7 mRNA levels)” value was 38%.
With “422250 (antisense e[5mC]*eT*dG*dG*d[5mC]*dT*dG*dA*dG*dG*dA*dG*dA*d[5mC]*dA*eA*eT*eG*eG*eT) [compound 422250]” the “% Inhibition (human Factor 7 mRNA levels)” value was 54%.
In the case of “422159 (antisense eA*eA*eT*dG*dG*dT*d[5mC]*dA*dG*dG*dG*d[5mC]*dT*dG*dG*dT*dT*eT*eT*eG) [compound 422159]”, the “% Inhibition (human Factor 7 mRNA levels)” value is reported as 45%.
In the case of “422164 (antisense eG*eA*eG*dA*d[5mC]*dA*dA*dT*dG*dG*dT*d[5mC]*dA*dG*dG*dG*d[5mC]*eT*eG*eG) [compound 422164]”, the “% Inhibition (human Factor 7 mRNA levels)” value is reported as 64%.

Same assay, conditions: oligonucleotides targeted to nucleobases 13760 to 13789 of SEQ ID NO: 1 (Table 10)
With “422178 (antisense eA*e[5mC]*e[5mC]*d[5mC]*dG*d[5mC]*d[5mC]*dG*dG*d[5mC]*dT*d[5mC]*dT*dG*d[5mC]*dT*d[5mC]*eA*eT*e[5mC]) [compound 422178]” the “% Inhibition (human Factor 7 mRNA levels)” value was 37%.
In the case of “422254 (antisense e[5mC]*e[5mC]*d[5mC]*dG*d[5mC]*d[5mC]*dG*dG*d[5mC]*dT*d[5mC]*dT*dG*d[5mC]*dT*e[5mC]*eA*eT*e[5mC]*e[5mC]) [compound 422254]”, the “% Inhibition (human Factor 7 mRNA levels)” value is reported as 42%.

Same assay, conditions: oligonucleotides targeted to nucleobases 14707 to 14732 of SEQ ID NO: 1 (Table 11)
With “422278 (antisense eG*e[5mC]*d[5mC]*dT*dG*dA*dG*dG*d[5mC]*d[5mC]*dA*dG*d[5mC]*dA*dG*eA*eT*e[5mC]*eA*e[5mC]) [compound 422278]” the “% Inhibition (human Factor 7 mRNA levels)” value was 64%.
In the case of “422283 (antisense e[5mC]*eA*dG*d[5mC]*dA*dG*d[5mC]*d[5mC]*dT*dG*dA*dG*dG*d[5mC]*d[5mC]*eA*eG*e[5mC]*eA*eG) [compound 422283]”, the “% Inhibition (human Factor 7 mRNA levels)” value is reported as 50%.
With “422200 (antisense e[5mC]*e[5mC]*eT*dG*dA*dG*dG*d[5mC]*d[5mC]*dA*dG*d[5mC]*dA*dG*dA*dT*d[5mC]*eA*e[5mC]*eG) [compound 422200]” the “% Inhibition (human Factor 7 mRNA levels)” value was 58%.
